Test results taken from US20200368288A1, “Hierarchic Neural Microphysiological System for Brain Function and Disorders” (The Trustees of Columbia University in the City of New York, priority 2018, published 2020).
Read-outs that look alike come from different tables or passages of the source.

Tests used:
Setd1a+/− MoNNets = assay: Rescue of Setd1a+/- MoNNet network pathophysiology by LSD1 inhibition, Ca2+ imaging before and after treatment; assay type: cell-based, mice
Text: Taking advantage of MoNNet properties, effective in vitro models of SCZ-associated network pathophysiology (SCZ-MoNNets) were developed. SCZ is characterized by psychosis, cognitive dysfunction and a broad spectrum of complex behavioral abnormalities (Clementz et al., 2016). Several recent studies in animal models have investigated the underlying circuit pathophysiology, identifying deficits in activity synchrony and degraded ensembles (Fenelon et al., 2013; Hamm et al., 2017; Hamm et al., 2020; Marissal et al., 2018; Sigurdsson et al., 2010; Zaremba et al., 2017). Therefore, the MoNNet approach provides a well suited system to develop quantitative in vitro models of SCZ-like network function pathophysiology. We developed and characterized MoNNet preparations (SCZ-MoNNets) from two well-studied genetic models—Setd1a+/− and Df(16)A+/−, which recapitulate SCZ-related cognitive and circuitry pathophysiology (Fenelon et al., 2013; Mukai et al., 2019). […] The lower-level deviations in molecular, cellular and synaptic pathways underlying the observed alterations in network states remain to be determined and may be different for each mutation.
Hippocampal neuronal cultures were generated from E17 to E18 embryos by building upon standard cell culture techniques, as follows. Pregnant mice were anesthetized under isoflurane, and euthanized by cervical dislocation. Hippocampus were dissected in Hibernate E (Gibco) iced cold media, and incubated in 0.25% Trypsin-EDTA (Gibco) at 37° C. for […]., followed by […] DNAse I (1 μg/ml; Sigma) incubation at room temperature. Mechanical dissociation of dissected hippocampus was performed by repeated pipetting with a fire-polished glass Pasteur pipet until a homogenous cell suspension was obtained. Cell viability was determined by Trypan Blue exclusion assay. Cell solution was then centrifuged at 150 g for […], and the supernatant was removed. Resulting cell pellet was resuspended in the culture media containing Neurobasal media, 2% B27, 0.5 mM Glutamate and 1% Penicillin/Streptomycin (Gibco). Cells were infected with AAV1.Syn.GCaMP6f.WPRE.SV40 virus ((Chen et al., 2013); Pennsylvania Vector Core, Cat #:AV-1-PV2822). For single spheroid cultures, 2% agarose 96 wells (400 μm diameter) micro-molds were created by using custom casts fabricated by 3D printing (UV-resin; Formlabs 3D printer). The agarose micro molds were equilibrated in the culture medium over a 24 h period prior to plating. […]
Imaging was performed using a wide-field fluorescence microscope (Leica M165FC) equipped with a long-pass GFP filter set (Leica filter set ET GFP M205FA/M165FC), 1.6× Plan Apo objective, 3.2× zoom and sCMOS camera (Hamamatsu ORCA-Flash 4.0). Time-lapse videos were recorded at 30 Hz for ˜4.5 min at 37° C. […]

NNet preparation = assay: Modeling epileptic seizures with NNet (4-AP local injection, picrotoxin addition); assay type: cell-based
Method: 4-AP, a commonly used seizure inducing compound, was injected in a specific neurosphere of an NNet preparation. […] As shown in the magnified view (top row, third) these peaks are maintained during the time. […] In FIG. 6 the colored maps (bottom) show the spatial progression of the seizure waves in three different bouts (labeled as Epi. Events #1, #2, and #3). The directionality of seizure spread is maintained constant from bottom-left to top-right.

MoNNet neurons = assay: Whole cell electrophysiology recordings in MoNNet, synaptic transmission across spheroids; assay type: cell-based, mice
Method: Whole cell recordings were performed as described previously (Crabtree et al., 2016; Crabtree et al., 2017), using borosilicate glass pipettes (initial resistance 3-5.5 MS2) which were filled with an intracellular solution containing: K methanesulfonate 125 mM, NaCl 10 mM, CaCl2) 1 mM, MgCl2 1 mM, HEPES 10 mM, EGTA 0.1 mM, MgATP 5 mM, NaGTP 0.5 mM. The pH was adjusted to 7.2 with KOH. Spontaneous synaptic events were assessed at −70 mV (presumptive glutamatergic) and at 0 mV (presumptive GABAergic). Excitatory and inhibitory evoked synaptic responses were assessed as follows. Evoked synaptic responses across spheroid units were elicited with electric stimulation applied with a concentric bipolar stimulating electrode (tip diameter 0.125 mm, FHC, Bowdinham, Me.) positioned on a spheroid >250 μm away from the spheroid containing the recorded neuron. The stimulus was set to 10V, a duration of 100 μs and applied at 10 Hz. […] Neurons were then held in voltage-clamp at 0 mV to assess evoked inhibitory synaptic responses. For assessing neuronal excitability in current-step, action potential firing was recorded in response to incremental (20 pA steps) depolarizing current injections (500 ms duration). Bridge balance of series resistance was employed and recordings with series resistance >20 MΩ were rejected. For current-step assays, resting membrane potential was adjusted to ˜−70 mV by injection of a small standing current. For voltage steps, cells were held at −70 mV, and 10 mV steps were applied ranging from −100 mV to 50 mV. Series resistance-related errors were partially corrected by using 70% prediction and 70% series resistance compensation.

LSD1 = LSD1 (Mus musculus, UniProt Q6ZQ88); conditions: Mukai et al., 2019; cited from earlier work
NNet preparations = assay: Chronic ketamine treatment NNet model of schizophrenia pathophysiology, calcium imaging; conditions: ketamine 10 μM every 24 hours vs saline control; imaging before and 2 days after
[1] = 2-day treatment, TCP 600 nM, ORY-1001 0.6-0.9 nM
[2] = picrotoxin added after 4-AP local injection

Question: With `N[C@@H]1C[C@H]1c1ccccc1` (racemic) [TCP, Tranylcypromine] as the molecule, how does the ensembles stability (Setd1a+/− MoNNets) read?
Answer: The ensembles stability was “partial rescue”.

Question: And the network synchrony (Setd1a+/− MoNNets)?
Answer: The network synchrony was “partial rescue”.

Question: Which seizure peaks (NNet preparation; local injection in a specific neurosphere) does the source give for `Nc1ccncc1` [4-AP] here?
Answer: Its seizure peaks is “typical high seizure peaks”.

Question: Which “evoked inhibitory synaptic transmission across spheroids” value (MoNNet neurons; CNQX 10 μM blockade of glutamatergic transmission, cell held at 0 mV) does the source give for `N#Cc1cc2[nH]c(=O)c(=O)[nH]c2cc1[N+](=O)[O-]` [CNQX] here?
Answer: Its value is “robust evoked inhibitory synaptic transmission”.

Question: And the “evoked excitatory synaptic responses” value (MoNNet neurons; CNQX 10 μM washed in with ACSF, voltage-clamp at −70 mV, 10 Hz stimulation of neighboring spheroid)?
Answer: The value was “completely ablated”.

Question: And the “spontaneous inhibitory synaptic events” value (MoNNet neurons; CNQX 10 μM, neuron held at 0 mV)?
Answer: The value was “reduction”.

Question: What does the source list for `N[C@H]1CC[C@H](N[C@@H]2C[C@H]2c2ccccc2)CC1` [ORY-1001]?
Answer: ensembles stability (Setd1a+/− MoNNets; [1]): partial rescue; network synchrony (Setd1a+/− MoNNets; [1]): partial rescue; cellular and behavioral defects (LSD1): effective in partial rescue

Question: Which “correlation among neurosphere units of NNet” value (NNet preparations) does the source give for `CNC1(c2ccccc2Cl)CCCCC1=O` (stereo not drawn) [ketamine] here?
Answer: Its value is “decreased”.

Question: Which results are given for picrotoxin?
Answer: directionality of seizure spread (NNet preparation; [2]): directionality becomes random; frequency of number of events (NNet preparation; [2]): increased frequency of number of events
